Assay results as given in patent US20190167611A1, “METHODS OF TREATING OR PREVENTING AMYLOID RELATED IMAGING ABNORMALITIES ASSOCIATED WITH ALZHEIMER'S DISEASE TREATMENT” (BIOGEN CHESAPEAKE LLC, priority 2016, published 2019).

Assays:
[1] = human, in vivo
Protocol: The two groups are referred to as the 0.4 mg/day group and the 3.0 mg/day group, respectively.

[2] = test system: Alzheimer's disease patients who present with clinically significant ARIA; experiment: Clinical trial of glyburide plus standard of care versus placebo in Alzheimer's disease patients with clinically significant ARIA; assay type: in vivo, human; details: glyburide 0.5-3.0 mg/day, several routes
Protocol: In one arm, glyburide is administered as a bolus followed by continuous infusion. In a second arm, glyburide is administered via a transdermal patch or gel. In a third arm, glyburide is administered via injection. In a fourth arm, glyburide is administered orally. […] Total treatment duration will be a minimum of 72 hours and will continue as needed until acute brain edema has stabilized. […] Plasma levels of glyburide are determined daily or weekly. Each patient is monitored via blood sampling and MRI. Magnetic resonance imaging scans monitor patients for amyloid-related imaging abnormalities and progression of edema and/or associated hemorrhage. FLAIR sequences are evaluated for the presence of ARIA. A 4-point scale is used to assess presence of ARIA. The percentages of patients with ARIA are compared between treatment groups and placebo group.

SMILES | Metabolite exposure in relation to the administered dose of RP-1127 [1] | ARIA compared with the control group [2] | Brain edema compared with the control group [2] | Functional recovery compared with the control group [2] | Hemorrhage volume compared with the control group [2] | Dose dependence of pharmacokinetics [1]
COc1ccc(Cl)cc1C(=O)NCCc1ccc(S(=O)(=O)NC(=O)NC2CCC(O)CC2)cc1 (stereo not shown) [M1] | approximately proportional |  |  |  |  | 
COc1ccc(Cl)cc1C(=O)NCCc1ccc(S(=O)(=O)NC(=O)N[C@@H]2CCC[C@H](O)C2)cc1 [M2] | approximately proportional |  |  |  |  | 
COc1ccc(Cl)cc1C(=O)NCCc1ccc(S(=O)(=O)NC(=O)NC2CCCCC2)cc1 [glyburide] |  | significantly reduced or inhibited | reduced brain edema | improved functional recovery | reduced hemorrhage volume | dose-independent pharmacokinetics
